The numbers were not newly measured in patent publication US20190269715A1, “COMPOSITIONS AND METHOD OF USE OF A-TYPE PROCYANIDINS” (MARS, INCORPORATED, priority 2004, published 2019), which cites them from elsewhere.

The target in series [1] is Leukemia virus reverse transcriptase (Moloney murine leukemia virus, UniProt P03355). Particulars: cited from earlier work.
For series [2] the following is noted: experimental animal studies; cited from earlier work.
Another series deals with tumor. The following applies: cited from earlier work.

In the case of `Oc1cc(O)c2c(c1)O[C@H](c1ccc(O)c(O)c1)[C@H](O)C2` [(−)-epicatechin], in series [1], the “inhibition of Leukemia virus reverse transcriptase activity” value is reported as “inhibit”. For `O=c1c(O)c(-c2ccc(O)c(O)c2)oc2cc(O)cc(O)c12` [quercetin], the anticarcinogenic activity result in series [2] was “anticarcinogenic activity”. For the compound Nobotanin, in the series on tumor, the anti-tumor activity result is reported as “anti-tumor activity”.
